Columns and labels:
Format in all cases: functional, cell-based
[1] = Antiproliferative activity against human H522-T1 cells after 96 hrs; conditions: H522-T1, 96 h
MDA-MB-435 = test: Antiproliferative activity against human MDA-MB-435 cells after 96 hrs; conditions: MDA-MB-435, 96 h
HT-29 = test: Antiproliferative activity against human HT29 cells after 96 hrs; conditions: HT-29, 96 h
U-937 = test: Antiproliferative activity against human U937 cells after 96 hrs; conditions: U-937, 96 h
A2780 = test: Antiproliferative activity against human A2780 cells after 96 hrs; conditions: A2780, 96 h

`C=C[C@](C)(CC/C=C(\C)C(=O)O[C@H]1[C@H](O)[C@@H](O)[C@H](O[C@](C)(C=C)CC/C=C(\C)C(=O)O[C@H]2[C@H](O)[C@@H](O)[C@H](O[C@](C)(C=C)CC/C=C(/C)C(=O)O[C@H]3C[C@]4(C(=O)O[C@@H]5O[C@H](CO)[C@@H](O)[C@H](O)[C@H]5O[C@@H]5O[C@@H](C)[C@H](O[C@@H]6OC[C@@H](O)[C@H](O)[C@H]6O)[C@@H](O)[C@H]5O)[C@H](O)C[C@]5(C)C(=CC[C@@H]6[C@@]7(C)CC[C@H](O[C@@H]8O[C@H](CO[C@@H]9O[C@H](C)[C@H](O)[C@H](O)[C@H]9O)[C@@H](O)[C@H](O)[C@H]8O[C@@H]8O[C@H](CO)[C@@H](O)[C@H](O)[C@H]8O)C(C)(C)C7CC[C@]65C)[C@@H]4CC3(C)C)O[C@@H]2C)O[C@@H]1C)O[C@@H]1O[C@H](C)[C@@H](O)[C@H](O)[C@H]1O` (stereo not given in full) [GUMMIFERAOSIDE C] showed an IC50 [1] of 640 nM, an IC50 (MDA-MB-435) of 480 nM and an IC50 (HT-29) of 610 nM. For the same compound, the IC50 (U-937) was 290 nM and the IC50 (A2780) was 260 nM.

— ChEMBL document CHEMBL1142237, “Cytotoxic triterpenoid saponins of Albizia gummifera from the Madagascar rain forest” (J Nat Prod, 2007)
